Measurements reported in patent US4006133A, “Aminoglycoside antibiotics” (Sankyo Company Limited, priority 1973, dated 1977).
Values after ≈ are worked out from the molar mass of the structure shown. Where two headings read alike, the source gives them in different places.

Experiments:
Format in all cases: cell-based
[1] = tested on: Proteus morganii 1501; assay: Minimum inhibitory concentration
[2] = tested on: Pseudomonas aeruginosa 1080; assay: Minimum inhibitory concentration
[3] = tested on: Pseudomonas aeruginosa 1055; assay: Minimum inhibitory concentration
[4] = tested on: Pseudomonas schuylkilliensis; assay: Minimum inhibitory concentration; conditions: read-out: Minimum inhibitory concentration
[5] = tested on: Staphylococcus aureus 126; assay: Minimum inhibitory concentration
[6] = tested on: Escherichia coli NIHJ; assay: Minimum inhibitory concentration; conditions: read-out: Minimum inhibitory concentration
[7] = tested on: Bacillus anthracis; assay: microbe, parasite or virus in culture; conditions: read-out: Minimum inhibitory concentration
[8] = tested on: Escherichia coli 620; assay: Minimum inhibitory concentration
[9] = tested on: Staphylococcus aureus 167; assay: Minimum inhibitory concentration
[10] = tested on: Staphylococcus aureus 209 P; assay: Minimum inhibitory concentration; conditions: read-out: Minimum inhibitory concentration
[11] = tested on: Shigella flexneri 2a; assay: Minimum inhibitory concentration; conditions: Hurt's infusion agar
[12] = tested on: Shigella sonnei; assay: Minimum inhibitory concentration; conditions: Hurt's infusion agar
[13] = tested on: butirosin-resistant as well as butirosin-sensitive strains; assay: Antibacterial activity, butirosin-resistant and butirosin-sensitive strains
[14] = tested on: Pseudomonas aeruginosa 1100; assay: Minimum inhibitory concentration
[15] = tested on: Proteus vulgaris 1416; assay: Minimum inhibitory concentration
[16] = tested on: Proteus morganii 1512; assay: Minimum inhibitory concentration
[17] = tested on: Proteus mirabilis 1306; assay: Minimum inhibitory concentration
[18] = tested on: Staphylococcus aureus 109; assay: Minimum inhibitory concentration
[19] = tested on: Salmonella typhi-murium; assay: Minimum inhibitory concentration; conditions: read-out: Minimum inhibitory concentration
[20] = tested on: Pseudomonas aeruginosa Scr.; assay: Minimum inhibitory concentration; conditions: read-out: Minimum inhibitory concentration
[21] = tested on: Proteus mirabilis 1312; assay: Minimum inhibitory concentration
[22] = tested on: Bacillus subtilis PCI-219; assay: Minimum inhibitory concentration
[23] = tested on: Escherichia coli 704; assay: Minimum inhibitory concentration
[24] = tested on: Proteus rettgeri 1602; assay: Minimum inhibitory concentration
[25] = tested on: Klebsiella 813; assay: Minimum inhibitory concentration
[26] = tested on: Staphylococcus epidermidis; assay: Minimum inhibitory concentration; conditions: read-out: Minimum inhibitory concentration
[27] = tested on: Pseudomonas aeruginosa 1016; assay: Minimum inhibitory concentration
[28] = tested on: Proteus rettgeri 1601; assay: Minimum inhibitory concentration
[29] = tested on: Salmonella enteritidis; assay: Minimum inhibitory concentration; conditions: Salmonella enterica, read-out: Minimum inhibitory concentration
[30] = tested on: Proteus vulgaris 1404; assay: Minimum inhibitory concentration
[31] = tested on: Klebsiella 806; assay: Minimum inhibitory concentration
[32] = tested on: Escherichia coli 605; assay: Minimum inhibitory concentration
[33] = tested on: Staphylococcus aureus 163; assay: Minimum inhibitory concentration
[34] = tested on: Escherichia coli 665; assay: Minimum inhibitory concentration

Molecule NCC[C@H](O)C(=O)N[C@@H]1C[C@H](N)[C@@H](O[C@H]2O[C@H](CN)CC[C@H]2N)[C@H](O[C@@H]2O[C@H](CN)[C@H](O)[C@H]2O)[C@H]1O [ATBA, 5"-amino-3',4',5"-trideoxybutirosin A] has an MIC ([1]; Morganella morganii, Proteus morganii 1501, Hurt's infusion agar, read-out: Minimum inhibitory concentration) of 1.5 µg/mL (≈ 2.87 µM), an MIC ([2]; Pseudomonas aeruginosa 1080, Hurt's infusion agar, read-out: Minimum inhibitory concentration) of 100 µg/mL (≈ 191 µM) and an MIC ([3]; Pseudomonas aeruginosa 1055, Hurt's infusion agar, read-out: Minimum inhibitory concentration) of 6.2 µg/mL (≈ 11.9 µM). The MIC ([4]; Pseudomonas schuylkilliensis, Hurt's infusion agar) was 6.2 µg/mL (≈ 11.9 µM), the MIC ([5]; Staphylococcus aureus 126, Hurt's infusion agar, read-out: Minimum inhibitory concentration) was 1.5 µg/mL (≈ 2.87 µM) and the MIC ([6]; Escherichia coli NIHJ, Hurt's infusion agar) was 3.1 µg/mL (≈ 5.93 µM). The MIC [7] was 0.1 µg/mL (≈ 0.191 µM), the MIC ([8]; Escherichia coli 620, Hurt's infusion agar, read-out: Minimum inhibitory concentration) was 12.5 µg/mL (≈ 23.9 µM) and the MIC ([9]; Staphylococcus aureus 167, Hurt's infusion agar, read-out: Minimum inhibitory concentration) was 0.1 µg/mL (≈ 0.191 µM). The MIC ([10]; Staphylococcus aureus 209 P, Hurt's infusion agar) was 0.2 µg/mL (≈ 0.383 µM), the MIC [11] was 3.1 µg/mL (≈ 5.93 µM) and the MIC [12] was 3.1 µg/mL (≈ 5.93 µM). For the same molecule, the “antibacterial activity (in words)” value [13] was “extremely active”, the MIC ([14]; Pseudomonas aeruginosa 1100, Hurt's infusion agar, read-out: Minimum inhibitory concentration) was 25 µg/mL (≈ 47.8 µM) and the MIC ([15]; Proteus vulgaris 1416, Hurt's infusion agar, read-out: Minimum inhibitory concentration) was 50 µg/mL (≈ 95.7 µM). The MIC ([16]; Morganella morganii, Proteus morganii 1512, Hurt's infusion agar, read-out: Minimum inhibitory concentration) was 3.1 µg/mL (≈ 5.93 µM), the MIC ([17]; Proteus mirabilis 1306, Hurt's infusion agar, read-out: Minimum inhibitory concentration) was 25 µg/mL (≈ 47.8 µM) and the MIC ([18]; Staphylococcus aureus 109, Hurt's infusion agar, read-out: Minimum inhibitory concentration) was 3.1 µg/mL (≈ 5.93 µM). For the same molecule, the MIC [19] was 6.2 µg/mL (≈ 11.9 µM), the MIC ([20]; Pseudomonas aeruginosa Scr., Hurt's infusion agar) was 1.5 µg/mL (≈ 2.87 µM) and the MIC ([21]; Proteus mirabilis 1312, Hurt's infusion agar, read-out: Minimum inhibitory concentration) was 50 µg/mL (≈ 95.7 µM). It also gave an MIC ([22]; PCI219, Bacillus subtilis PCI-219, Hurt's infusion agar, read-out: Minimum inhibitory concentration) of 0.1 µg/mL (≈ 0.191 µM), an MIC ([23]; Escherichia coli 704, Hurt's infusion agar, read-out: Minimum inhibitory concentration) of 6.2 µg/mL (≈ 11.9 µM) and an MIC ([24]; Providencia rettgeri, Proteus rettgeri 1602, Hurt's infusion agar, read-out: Minimum inhibitory concentration) of 12.5 µg/mL (≈ 23.9 µM). For the same molecule, the MIC ([25]; Klebsiella 813, Hurt's infusion agar, read-out: Minimum inhibitory concentration) was 25 µg/mL (≈ 47.8 µM), the MIC ([26]; Hurt's infusion agar) was 1.5 µg/mL (≈ 2.87 µM) and the MIC ([27]; Pseudomonas aeruginosa 1016, Hurt's infusion agar, read-out: Minimum inhibitory concentration) was 3.1 µg/mL (≈ 5.93 µM). The MIC ([28]; Providencia rettgeri, Proteus rettgeri 1601, Hurt's infusion agar, read-out: Minimum inhibitory concentration) was 1.5 µg/mL (≈ 2.87 µM), the MIC ([29]; Salmonella enteritidis, Hurt's infusion agar) was 6.2 µg/mL (≈ 11.9 µM) and the MIC ([30]; Proteus vulgaris 1404, Hurt's infusion agar, read-out: Minimum inhibitory concentration) was 6.2 µg/mL (≈ 11.9 µM). It also gave an MIC ([31]; Klebsiella 806, Hurt's infusion agar, read-out: Minimum inhibitory concentration) of 6.2 µg/mL (≈ 11.9 µM), an MIC ([32]; Escherichia coli 605, Hurt's infusion agar, read-out: Minimum inhibitory concentration) of 25 µg/mL (≈ 47.8 µM) and an MIC ([33]; Staphylococcus aureus 163, Hurt's infusion agar, read-out: Minimum inhibitory concentration) of 25 µg/mL (≈ 47.8 µM). It also gave an MIC ([34]; Escherichia coli 665, Hurt's infusion agar, read-out: Minimum inhibitory concentration) of 12.5 µg/mL (≈ 23.9 µM).
With NCC[C@H](O)C(=O)N[C@@H]1C[C@H](N)[C@@H](O[C@H]2O[C@H](CN)[C@@H](O)[C@H](O)[C@H]2N)[C@H](O[C@@H]2O[C@H](CO)[C@H](O)[C@H]2O)[C@H]1O [BA, butirosin A, reference compound] the MIC ([1]; Morganella morganii, 1501, read-out: Minimum inhibitory concentration) was 3.1 µg/mL (≈ 5.58 µM), the MIC ([2]; Pseudomonas aeruginosa, 1080, read-out: Minimum inhibitory concentration) was > 200 µg/mL and the MIC ([3]; Pseudomonas aeruginosa, 1055, read-out: Minimum inhibitory concentration) was > 200 µg/mL. The MIC ([4]; Pseudomonas) was 25 µg/mL (≈ 45 µM), the MIC ([5]; Staphylococcus aureus, 126, read-out: Minimum inhibitory concentration) was 6.5 µg/mL (≈ 11.7 µM) and the MIC ([6]; Escherichia coli) was 3.1 µg/mL (≈ 5.58 µM). The MIC [7] was 0.8 µg/mL (≈ 1.44 µM), the MIC ([8]; Escherichia coli, 620, read-out: Minimum inhibitory concentration) was > 200 µg/mL and the MIC ([9]; Staphylococcus aureus, 167, read-out: Minimum inhibitory concentration) was 200 µg/mL (≈ 360 µM). The MIC ([10]; Staphylococcus aureus, 209P) was 1.5 µg/mL (≈ 2.7 µM), the MIC [11] was 6.2 µg/mL (≈ 11.2 µM) and the MIC [12] was 6.2 µg/mL (≈ 11.2 µM). The MIC ([14]; Pseudomonas aeruginosa, 1100, read-out: Minimum inhibitory concentration) was > 200 µg/mL, the MIC ([15]; Proteus vulgaris, 1416, read-out: Minimum inhibitory concentration) was 100 µg/mL (≈ 180 µM) and the MIC ([16]; Morganella morganii, 1512, read-out: Minimum inhibitory concentration) was 25 µg/mL (≈ 45 µM). For the same molecule, the MIC ([17]; Proteus mirabilis, 1306, read-out: Minimum inhibitory concentration) was 50 µg/mL (≈ 90 µM), the MIC ([18]; Staphylococcus aureus, 109, read-out: Minimum inhibitory concentration) was > 200 µg/mL and the MIC ([19]; Salmonella typhi-murium, Hurt's infusion agar) was 12.5 µg/mL (≈ 22.5 µM). For the same molecule, the MIC ([20]; Pseudomonas aeruginosa) was 12.5 µg/mL (≈ 22.5 µM), the MIC ([21]; Proteus mirabilis, 1312, read-out: Minimum inhibitory concentration) was 100 µg/mL (≈ 180 µM) and the MIC ([22]; Bacillus subtilis, PCI219, read-out: Minimum inhibitory concentration) was 0.4 µg/mL (≈ 0.72 µM). The MIC ([23]; Escherichia coli, 704, read-out: Minimum inhibitory concentration) was 12.5 µg/mL (≈ 22.5 µM), the MIC ([24]; Providencia rettgeri, 1602, read-out: Minimum inhibitory concentration) was > 200 µg/mL and the MIC ([25]; Klebsiella, 813, read-out: Minimum inhibitory concentration) was 50 µg/mL (≈ 90 µM). For the same molecule, the MIC [26] was 0.4 µg/mL (≈ 0.72 µM), the MIC ([27]; Pseudomonas aeruginosa, 1016, read-out: Minimum inhibitory concentration) was > 200 µg/mL and the MIC ([28]; Providencia rettgeri, 1601, read-out: Minimum inhibitory concentration) was 6.2 µg/mL (≈ 11.2 µM). The MIC ([29]; ENTERITIDIS) was 12.5 µg/mL (≈ 22.5 µM), the MIC ([30]; Proteus vulgaris, 1404, read-out: Minimum inhibitory concentration) was 25 µg/mL (≈ 45 µM) and the MIC ([31]; Klebsiella, 806, read-out: Minimum inhibitory concentration) was 3.1 µg/mL (≈ 5.58 µM). The MIC ([32]; Escherichia coli, 605, read-out: Minimum inhibitory concentration) was > 200 µg/mL, the MIC ([33]; Staphylococcus aureus, 163, read-out: Minimum inhibitory concentration) was > 200 µg/mL and the MIC ([34]; Escherichia coli, 665, read-out: Minimum inhibitory concentration) was > 200 µg/mL.
